Measurements as given in PubChem BioAssay (NCI).
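Compound exposure: 48 hours, 5 concentrations, 96-well plates. GI50: concentration for 50% inhibition of growth. TGI: total growth inhibition.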

Legend:
Assay in all cases: DTP human tumour cell line panel, 48 h
PC-3 prostate = system: PC-3 prostate
HS 578T breast = system: HS 578T breast
MDA-MB-435 = system: MDA-MB-435
UACC-62 melanoma = system: UACC-62 melanoma
MDA-MB-231 breast = system: MDA-MB-231 breast

| SMILES | GI50 (PC-3 prostate) [µM] | TGI (PC-3 prostate) [µM] | GI50 (HS 578T breast) [µM] | TGI (HS 578T breast) [µM] | GI50 (MDA-MB-435) [µM] | TGI (MDA-MB-435) [µM] | GI50 (UACC-62 melanoma) [µM] | TGI (UACC-62 melanoma) [µM] | GI50 (MDA-MB-231 breast) [µM] | TGI (MDA-MB-231 breast) [µM] |
| --- | --- | --- | --- | --- | --- | --- | --- | --- | --- | --- |
| O=C(Nc1ccc2c(c1)OCCO2)C(=O)c1c[nH]c2ccccc12 | 2.17 | > 100 | 1.72 | 22.9 | 0.166 | 0.531 | 1.43 | > 100 | 1.37 | 14.7 |
| O=C(/C=C\n1cnc(-c2cc(C(F)(F)F)cc(C(F)(F)F)c2)n1)N1CC(F)(F)C1 | 0.277 | 4.54 | 0.409 | 5.34 | 1.4 | 6.38 | 1.17 | 9.2 | 0.305 | 4.52 |
| CCn1c(=N)sc2nc3ccccc3n2c1=O |  | > 100 |  | > 100 |  | > 100 |  | > 100 |  | > 100 |
| CN1CCN(CCCOc2cccc3nc(Nc4ccc(F)c(F)c4)ccc23)CC1 | 3.83 | 8.43 | 4.73 | 11.8 | 1.27 | 5.14 | 0.695 | 1.6 | 0.937 | 3.38 |
| CC12OC(C(=O)C13CCC3)C1C(=O)c3ccc4c(ccc5ccccc54)c3C(=O)C12 (centres undefined) | 7.61 | 28.8 | 16 | 76.1 | 12.8 | 30.3 | 35.4 | > 100 |  |  |
| COc1ccc2nc3cccc([N+](=O)[O-])c3c(NCCNCCN(C)C)c2c1 |  | 0.293 | 0.175 | 0.558 | 0.111 | 0.248 | 0.121 | 0.3 | 0.658 | 4.17 |
| S=C(CSc1ccccc1)Nc1cccc2ccccc12 |  | > 100 |  | > 100 |  | > 100 |  | > 100 |  | > 100 |
| COc1cc(-c2cc3ncccc3c3[nH]c(=O)c4cccnc4c23)cc(OC)c1OC | 0.858 | > 100 | 0.914 | > 100 | 0.181 | > 100 | 0.496 | 30.3 | 1.54 | > 100 |
| NCCOc1ncccc1/C=C1\c2ccccc2-c2ccc([N+](=O)[O-])cc21 | 0.177 | 1.11 | 0.255 | 1.26 | 0.161 | 0.362 | 0.0784 | 0.386 | 0.206 | 0.613 |
| OC(COc1ccccc1)CN1CCCCC1 (centres undefined) |  | > 100 |  | > 100 |  | > 100 |  | > 100 |  | > 100 |
| CC(=O)O[C@H](C[C@H](C(C)C)N(C)C(=O)[C@@H](NC(=O)[C@H]1CCCCN1C)C(C)C)c1cccc(C(=O)N[C@@H](Cc2ccccc2)C[C@H](C)C(=O)O)n1 | 0.0321 | > 25 |  |  |  |  | 0.0276 | > 25 | 0.0332 | 10.1 |
| Nc1ccc(-c2ccc3ncc4ccc(=O)n(-c5cccc(C(F)(F)F)c5)c4c3c2)cn1 | < 0.01 | 5.38 | < 0.01 | < 0.0253 | < 0.01 | 3.26 | < 0.01 | 0.026 | < 0.0141 | 2.21 |
| Nc1nc2c(ccc3ccccc32)s1 | 33.7 | > 100 | > 100 | > 100 | 57.1 | > 100 | 75.8 | > 100 | > 100 | > 100 |
| C[C@H](NC(=O)c1c(C(F)F)nn(C)c1Oc1cccc(C(F)(F)F)c1)c1ccc(C(=O)O)cc1 | > 100 | > 100 | > 100 | > 100 | > 100 | > 100 | > 100 | > 100 | > 100 | > 100 |
| COc1cc(-c2nccc3cc4c(cc23)OCO4)cc(OC)c1OC | 4.25 | > 100 | 1.64 | 9.57 | 0.411 | 3.55 | 4.55 | > 100 | 16.1 | > 100 |
| CCOC(=O)C#Cc1c(C(=O)OCC)nnn1[C@@H]1O[C@H](CO)[C@H]2OC3(CCCCC3)O[C@H]21 | 13.5 | 26.8 | 19.6 | 58.3 | 4.49 | 16 | 2.02 | 4.55 | 2.97 | 8.79 |
| COc1cc2nc(-c3cccc4cccnc34)nc(NC3CCN(Cc4ccccc4)CC3)c2cc1OC | 1.36 | 2.83 | 2.07 | 4.81 | 1.56 | 3.08 | 2 | 4.02 | 1.36 | 2.75 |
| COc1cc(NC(C)CCCNC(C)C)c2ncccc2c1OC (centres undefined) |  |  | 4.74 | 60.7 | 54.6 | > 100 | > 100 | > 100 | > 100 | > 100 |
| CCc1nc2cc(/C=C/C(=O)NO)ccc2c(=O)n1CCc1ccc(OC)cc1 | 3.32 | > 100 | 2.13 | 34.3 | 2.7 | 42.6 | 1.59 | 4.33 | 2.31 | 7.66 |
| COc1ccc(-c2nn3ncccc3c2-c2ccnc(Nc3ccc4c(c3)OCCO4)n2)cc1 | 9.12 | > 25 | 10.2 | > 25 | 12.5 | > 25 | 5.23 | > 25 | 6.55 | > 25 |
| Cn1cc(C2=C(c3ccccc3C(F)(F)F)C(=O)NC2=O)c2ccccc21 | 6.13 | > 25 | 5.36 | > 25 | 9.89 | > 25 | 9.97 | > 25 | 17.4 | > 25 |
| O=C(CN(/C=C/C(=O)C(F)(F)F)c1ccccc1)c1ccc(Cl)cc1 | 16.1 | 34.2 | 28.2 | 64.6 | 19.5 | 42.6 | 13.1 | 25.8 | 16.5 | 33.3 |
| COc1ccc(-c2nsc3c2NC(=O)CC3c2cccc(Cl)c2)cc1 (centres undefined) | 2.12 | > 100 | 2.98 | > 65.4 | 0.226 | 0.917 | 2.31 | > 100 | 2.37 | > 100 |

| SMILES | GI50 (PC-3 prostate) [µM] | TGI (PC-3 prostate) [µM] | GI50 (HS 578T breast) [µM] | TGI (HS 578T breast) [µM] | GI50 (MDA-MB-435) [µM] | TGI (MDA-MB-435) [µM] | GI50 (UACC-62 melanoma) [µM] | TGI (UACC-62 melanoma) [µM] | GI50 (MDA-MB-231 breast) [µM] | TGI (MDA-MB-231 breast) [µM] |
| --- | --- | --- | --- | --- | --- | --- | --- | --- | --- | --- |
| CCCCN1C(=O)/C(=c2\sc3n(c2=O)C2C(NN=3)N(CC)C(=O)N2CC)c2ccccc21 (centres undefined) |  |  | 0.749 | 6.04 | 0.255 | 0.655 | 0.502 | 3.55 | 1.38 | 3.74 |
| CCN(CC)c1ccc(/C=N/NC(=O)CSc2nc3ccccc3c(=O)n2Cc2ccc(S(N)(=O)=O)cc2)c(O)c1 | 0.829 | > 100 | 2.11 | > 100 | 2.07 | > 100 | 0.886 | 5.44 | 0.643 | > 100 |
| COc1ccc(-c2nc(N)c(C#N)c3c2CCOc2c-3ccc3ccccc23)cc1 | 22 | > 100 | 31.8 | 76.6 | 46.6 | > 100 |  |  | 10.6 | 33.8 |
| Cc1nc(Sc2nc3ccc([N+](=O)[O-])cc3s2)sc1C | 1.15 | 7.63 | 3.03 | 16.4 | 1.78 | 11.1 | 1.22 | 3.49 | 1.84 | 11 |
| CC[C@@H](O)C[C@H]1CCC[C@@]2(C[C@@H]3OC(=O)/C=C/[C@@](C)(O)[C@@H](O)[C@H](C)[C@@H](O)[C@H](OC4CCC(N(C)C)C(C)O4)[C@@H](O)[C@](C)(O)CCCCC/C=C/[C@@H]4CC(C)(C)O[C@@]4(O)C[C@H](O2)[C@H]3C)O1 (some centres undefined) |  | 15.7 |  | 33.5 |  | 22.2 |  | 21.8 |  | 34.1 |
| CCOc1ccc(C(C)=O)cc1NC(=O)c1cccc(-c2nnn(CC)n2)c1 | 0.481 | > 100 | 0.996 | > 100 | 0.308 | 2.34 | 0.615 | 23.4 | 1.62 | 58.5 |
| Cc1ccc(O)c(NC2=C(Cl)C(=O)N(Cc3ccccc3)C2=O)c1 | 38.7 | > 100 | 21.2 | 65.3 | 28.4 | 76.1 | 17 | 36.8 | 12.6 | 32.3 |
| COc1cccc(NC(=O)c2sc3nc4c(cc3c2N)C(O)CCC4)c1 (centres undefined) | 0.23 | > 100 | 0.325 | > 49.9 |  |  | 0.15 | > 100 | 0.448 | > 100 |
| Cc1c(C)c2c(c(C)c1OCC(=O)O)CC[C@@](C)(CCC[C@@H](C)CCC[C@@H](C)CCCC(C)C)O2 | 34.9 | 106 | 89 | 229 | 72.6 | 142 | 61.1 | 126 | 95.2 | 218 |
| C=C(CN1c2ccccc2Sc2ccccc21)c1ccc(C(=O)Nc2ccccc2N)cc1 | 5.07 | > 100 | > 100 | > 100 | 3.87 | 25 | 93 | > 100 | 20.3 | > 79.4 |
| CCN(CC)c1ccc2nc3ccc(N=Nc4ccc(O)cc4)cc3[n+](-c3ccccc3)c2c1 |  |  | 1.88 | > 100 |  |  | 4.14 | 23.3 |  |  |
| CCN(CC)c1nc(NC2CCCCC2)c2nc(N(CC)CC)nc(NC3CCCCC3)c2n1 |  | > 100 |  | > 100 |  | > 100 |  | > 100 |  | > 100 |
| Cc1noc(C)c1-c1cnc2c(-c3ccc(C(=O)O)cc3)cn([C@@H](C)c3ccccn3)c2c1 | 3.28 | > 100 | 0.188 | > 100 | 0.603 | > 100 | 0.0954 | 20.2 | 0.518 | > 100 |
| NC(CSC(c1ccccc1)(c1ccccc1)c1ccc(F)cc1)C(=O)O (centres undefined) | 0.4 | > 35.9 | 0.239 | 0.841 | 0.251 | 0.654 | 0.408 |  | 0.326 | 5.5 |
| Cc1cn2c(/C=N/N=C(N)N)c(-c3ccncc3)nc2s1 | 18.8 | 32.8 |  |  | 17.2 | 33.8 | 19 | 34.1 | 52.6 | > 100 |
| CC(C)(C)c1nc(-c2cccc(NS(=O)(=O)c3c(F)cccc3F)c2F)c(-c2ccnc(N)n2)s1 | 41.3 | > 100 | 61.1 | > 100 | < 0.01 | > 100 |  |  | 7.19 | > 69.9 |
| COc1ccc(-c2n[nH]nc2-c2cc(OC)c3c(c2)OCO3)cc1 | 0.0384 | > 100 | 0.0219 | 3.72 | < 0.01 |  | < 0.01 | 49.2 | 0.0409 | 0.437 |
| COc1ccc2c(c1)O/C(=C\c1cccc(OCC(=O)Nc3nc(C)c(C)s3)c1)C2=O | 0.821 |  | 5.24 | > 41.5 | 7.29 | > 100 | 16.5 | > 100 | 0.95 |  |
| COc1cc(CN(c2ccc(C)cc2)C2OC(=O)c3ccccc32)cc(OC)c1OC (centres undefined) | 0.432 | > 100 | 0.308 | > 100 |  |  | 0.582 | > 100 | 0.846 | > 100 |
| O=C(O)Cn1ccc2ccccc21 | > 100 | > 100 | > 100 | > 100 | > 100 | > 100 | > 100 | > 100 | > 100 | > 100 |
| COc1cc(Nc2ncnc(Nc3ccc4c(n3)NC(=O)C(C)(C)O4)n2)cc(OC)c1OC | 1.46 | > 100 | 0.149 | 0.66 | 2.09 | > 100 | 2.36 | > 100 | 1.33 | > 100 |
| CCc1nn2ncccc2c1-c1ccnc(NC2CC2)n1 | > 25 | > 25 | > 18.5 | > 25 | > 25 | > 25 | > 25 | > 25 | > 25 | > 25 |
